The text below walks through data of the CheMixHub ionic liquid set.

± gives the uncertainty stated by the source.

The data set in a line: xn = mol fraction of the nth substance listed.

For the molecule `CCCCC[P+](CC)(CC)CC.O=S(=O)([N-]S(=O)(=O)C(F)(F)F)C(F)(F)F` + O=S(=O)([N-]S(=O)(=O)C(F)(F)F)C(F)(F)F.[Li+], the viscosity (commonly the internal friction of a fluid under shear) was 1100 ± 55 mPa·s (300.3 K, 101.33 kPa, x2 = 0.39); 200 ± 7 mPa·s (324.2 K, 101.33 kPa, x2 = 0.39); 150 ± 5 mPa·s (330.2 K, 101.33 kPa, x2 = 0.39); 42 ± 1 mPa·s (336.3 K, 101.33 kPa, x2 = 0.25); 34 ± 1 mPa·s (341.2 K, 101.33 kPa, x2 = 0.25); 27 ± 1 mPa·s (348.2 K, 101.33 kPa, x2 = 0.25). The viscosity (361.2 K, 101.33 kPa, x2 = 0.39) is 37 ± 1 mPa·s. In addition, the electrical conductivity reads like this: (324.2 K, 101.33 kPa, x2 = 0.39) 0.081 ± 0.001 S/m; (330.2 K, 101.33 kPa, x2 = 0.39) 0.11 ± 0.01 S/m; (336.3 K, 101.33 kPa, x2 = 0.25) 0.37 ± 0.01 S/m; (348.2 K, 101.33 kPa, x2 = 0.25) 0.52 ± 0.01 S/m; (361.3 K, 101.33 kPa, x2 = 0.39) 0.36 ± 0.01 S/m.

Consider `CCCC[n+]1ccn(C)c1.F[P-](F)(F)(F)(F)F` + OCC(F)(F)F, for which the viscosity runs as follows: (278.15 K, 101 kPa, x2 = 0) 1165 ± 51 mPa·s; (283.15 K, 101 kPa, x2 = 0) 774 ± 30 mPa·s; (288.15 K, 101 kPa, x2 = 0) 533 ± 19 mPa·s; (293.15 K, 101 kPa, x2 = 0) 378 ± 12 mPa·s; (298.15 K, 101 kPa, x2 = 0) 274 ± 8 mPa·s; (303.15 K, 101 kPa, x2 = 0) 203 ± 5 mPa·s. In addition, the viscosity runs as follows: (308.15 K, 101 kPa, x2 = 0) 154 ± 4 mPa·s; (313.15 K, 101 kPa, x2 = 0) 119 ± 3 mPa·s; (318.15 K, 101 kPa, x2 = 0) 93.5 ± 2 mPa·s; (323.15 K, 101 kPa, x2 = 0) 74.6 ± 1.5 mPa·s; (328.15 K, 101 kPa, x2 = 0) 60.4 ± 1.2 mPa·s; (333.15 K, 101 kPa, x2 = 0) 49.5 ± 1 mPa·s.

As for `CCCC[n+]1ccn(C)c1.O=S(=O)([N-]S(=O)(=O)C(F)(F)F)C(F)(F)F` + OCC(F)(F)F, the viscosity (283.15 K, 101 kPa, x2 = 0) is given as 107 ± 2 mPa·s.

Take `CC[n+]1ccn(C)c1.O=S(=O)([O-])O` + OCC(O)CO: the viscosity is, setting by setting: (298.15 K, 100 kPa, x1 = 0.33) 320 ± 26 mPa·s; (303.15 K, 100 kPa, x1 = 0.33) 232 ± 16 mPa·s; (308.15 K, 100 kPa, x1 = 0.33) 168 ± 9 mPa·s; (313.15 K, 100 kPa, x1 = 0.33) 127 ± 5 mPa·s; (318.15 K, 100 kPa, x1 = 0.33) 99 ± 3 mPa·s; (323.15 K, 100 kPa, x1 = 0.33) 78 ± 2 mPa·s.

As to `Cn1cc[nH+]c1.[Cl-]` + OCC(O)CO, the viscosity (298.15 K, 100 kPa, x1 = 0.333) was determined as 126.1 ± 2.8 mPa·s; the viscosity (313.15 K, 100 kPa, x1 = 0.333) is reported as 70.3 ± 0.8 mPa·s; the viscosity (333.15 K, 100 kPa, x1 = 0.333) came to 35 ± 0.4 mPa·s.

In turn, `CC[n+]1ccn(C)c1.O=S(=O)([O-])O` + OCCO showed a viscosity (303.15 K, 100 kPa, x1 = 0.125) of 15 ± 1 mPa·s; a viscosity (303.15 K, 100 kPa, x1 = 0.5) of 76 ± 4 mPa·s; a viscosity (308.15 K, 100 kPa, x1 = 0.25) of 24 ± 1 mPa·s; a viscosity (313.15 K, 100 kPa, x1 = 0.143) of 12 ± 1 mPa·s; a viscosity (313.15 K, 100 kPa, x1 = 0.33) of 30 ± 1 mPa·s; a viscosity (318.15 K, 100 kPa, x1 = 0.167) of 12 ± 1 mPa·s. The molecule also showed a viscosity (323.15 K, 100 kPa, x1 = 0.33) of 21 ± 1 mPa·s.

`CCCC[n+]1ccn(C)c1.F[P-](F)(F)(F)(F)F` + OCCOCCOCCOCCO showed a viscosity (298.15 K, 101 kPa, x2 = 0) of 254 ± 15 mPa·s.

Under “298.15 K, 101 kPa, x2 = 0”, `CCCC[n+]1ccn(C)c1.O=S(=O)([N-]S(=O)(=O)C(F)(F)F)C(F)(F)F` + OCCOCCOCCOCCO returned a viscosity of 45.3 ± 1.1 mPa·s.

For `CCCC[n+]1ccn(C)c1.F[P-](F)(F)(F)(F)F` + OC[C@H]1O[C@H](O[C@H]2[C@H](O)[C@@H](O)C(O)O[C@@H]2CO)[C@H](O)[C@@H](O)[C@@H]1O + O, the viscosity is, setting by setting: (293.15 K, 100 kPa, x1 = 0.0001838, x2 = 0) 1.011 ± 0.041 mPa·s; (293.15 K, 100 kPa, x1 = 0.0005385, x2 = 0) 1.025 ± 0.042 mPa·s; (293.15 K, 100 kPa, x1 = 0.0008966, x2 = 0) 1.038 ± 0.043 mPa·s; (293.15 K, 100 kPa, x1 = 0.001262, x2 = 0) 1.041 ± 0.043 mPa·s; (298.15 K, 100 kPa, x1 = 0.0001838, x2 = 0) 0.905 ± 0.037 mPa·s; (298.15 K, 100 kPa, x1 = 0.0005385, x2 = 0) 0.916 ± 0.038 mPa·s. Moreover, the viscosity is, setting by setting: (298.15 K, 100 kPa, x1 = 0.0008966, x2 = 0) 0.922 ± 0.038 mPa·s; (298.15 K, 100 kPa, x1 = 0.001262, x2 = 0) 0.932 ± 0.038 mPa·s; (303.15 K, 100 kPa, x1 = 0.0001838, x2 = 0) 0.821 ± 0.034 mPa·s; (303.15 K, 100 kPa, x1 = 0.0005385, x2 = 0) 0.826 ± 0.034 mPa·s; (303.15 K, 100 kPa, x1 = 0.0008966, x2 = 0) 0.83 ± 0.034 mPa·s; (303.15 K, 100 kPa, x1 = 0.001262, x2 = 0) 0.843 ± 0.035 mPa·s. Moreover, the viscosity is 0.742 ± 0.03 mPa·s (308.15 K, 100 kPa, x1 = 0.0001838, x2 = 0); 0.744 ± 0.031 mPa·s (308.15 K, 100 kPa, x1 = 0.0005385, x2 = 0); 0.75 ± 0.031 mPa·s (308.15 K, 100 kPa, x1 = 0.0008966, x2 = 0); 0.761 ± 0.031 mPa·s (308.15 K, 100 kPa, x1 = 0.001262, x2 = 0); 0.661 ± 0.027 mPa·s (313.15 K, 100 kPa, x1 = 0.0001838, x2 = 0); 0.674 ± 0.028 mPa·s (313.15 K, 100 kPa, x1 = 0.0005385, x2 = 0). The same molecule returned a viscosity (313.15 K, 100 kPa, x1 = 0.0008966, x2 = 0) of 0.677 ± 0.028 mPa·s and a viscosity (313.15 K, 100 kPa, x1 = 0.001262, x2 = 0) of 0.683 ± 0.028 mPa·s.

`Cn1cc[nH+]c1.[Cl-]` + [Cl][Al]([Cl])[Cl]: the electrical conductivity was found to be 0.709 ± 0.007 S/m (303.15 K, 101 kPa, x2 = 0.667) and 0.782 ± 0.008 S/m (313.15 K, 101 kPa, x2 = 0.643). Also, the viscosity runs as follows: (303.15 K, 101 kPa, x2 = 0.667) 32.79 ± 0.48 mPa·s; (313.15 K, 101 kPa, x2 = 0.643) 31.87 ± 0.44 mPa·s.

As to `CCCC[n+]1ccn(C)c1.F[P-](F)(F)(F)(F)F` + c1ccccc1, where the note is “313.2 K, 100 kPa, x2 = 0.6008”, the viscosity stood at 7.7 ± 0.4 mPa·s.

`CCCC[n+]1ccn(C)c1.F[P-](F)(F)(F)(F)F` + c1ccncc1: under “298.15 K, 101 kPa, x2 = 0.4915”, the electrical conductivity was 0.819 ± 0.098 S/m and the viscosity was determined as 21.8 ± 2.2 mPa·s.

For the molecule `CCCC[n+]1ccn(C)c1.O=S(=O)([N-]S(=O)(=O)C(F)(F)F)C(F)(F)F` + c1ccsc1, the viscosity (328.15 K, 100 kPa, x2 = 0) came out at 17.98 ± 0.96 mPa·s.
